Reference: PubChem BioAssay (NCI)
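Step 1: Grow cells in 96-well plates. Step 2: Expose to compound for 48 hours at 5 concentrations. Step 3: Interpolate endpoints linearly; if unreached, use highest concentration. GI50 is the concentration that inhibits growth by half. TGI: total growth inhibition.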

Columns and labels:
Test in all cases: DTP human tumour cell line panel, 48 h
LOX IMVI melanoma = system: LOX IMVI melanoma
IGROV1 ovarian = system: IGROV1 ovarian
EKVX NSCLC = system: EKVX NSCLC
MDA-MB-435 = system: MDA-MB-435
RPMI-8226 leukemia = system: RPMI-8226 leukemia
A549 NSCLC = system: A549 NSCLC
HOP-92 NSCLC = system: HOP-92 NSCLC
T-47D breast = system: T-47D breast
DU-145 prostate = system: DU-145 prostate
SK-MEL-28 melanoma = system: SK-MEL-28 melanoma
HT29 colon = system: HT29 colon
NCI-H460 lung = system: NCI-H460 lung
SN12C renal = system: SN12C renal
RXF 393 renal = system: RXF 393 renal
NCI/ADR-RES ovarian = system: NCI/ADR-RES ovarian
CCRF-CEM leukemia = system: CCRF-CEM leukemia
MCF7 breast = system: MCF7 breast
PC-3 prostate = system: PC-3 prostate
UO-31 renal = system: UO-31 renal
TK-10 renal = system: TK-10 renal
NCI-H522 lung = system: NCI-H522 lung
SNB-19 CNS = system: SNB-19 CNS
ACHN renal = system: ACHN renal
NCI-H226 lung = system: NCI-H226 lung
U251 CNS = system: U251 CNS
SW-620 colon = system: SW-620 colon
SF-295 CNS = system: SF-295 CNS
BT-549 breast = system: BT-549 breast

Compound NC1CCC(Nc2nc(NCc3cc(Cl)ccc3O)c3ncn(C4CCCC4)c3n2)CC1 (stereo unspecified) has a GI50 (LOX IMVI melanoma) of 537 nM, a TGI (LOX IMVI melanoma) of 5000 nM and a GI50 (IGROV1 ovarian) of 204 nM. It also gave a TGI (IGROV1 ovarian) of 771 nM, a GI50 (EKVX NSCLC) of 262 nM and a TGI (EKVX NSCLC) of 928 nM. It also gave a GI50 (MDA-MB-435) of 149 nM, a TGI (MDA-MB-435) of 328 nM and a GI50 (RPMI-8226 leukemia) of 202 nM. The TGI (RPMI-8226 leukemia) was 474 nM, the GI50 (A549 NSCLC) was 193 nM and the TGI (A549 NSCLC) was 713 nM. For the same compound, the GI50 (HOP-92 NSCLC) was 163 nM, the TGI (HOP-92 NSCLC) was 630 nM and the GI50 (T-47D breast) was 259 nM. For the same compound, the TGI (T-47D breast) was 858 nM, the GI50 (DU-145 prostate) was 207 nM and the TGI (DU-145 prostate) was 1020 nM. The GI50 (SK-MEL-28 melanoma) was 153 nM, the TGI (SK-MEL-28 melanoma) was 340 nM and the GI50 (HT29 colon) was 220 nM. For the same compound, the TGI (HT29 colon) was 755 nM, the GI50 (NCI-H460 lung) was 125 nM and the TGI (NCI-H460 lung) was 958 nM. The GI50 (SN12C renal) was 143 nM, the TGI (SN12C renal) was 759 nM and the GI50 (RXF 393 renal) was 120 nM. It also gave a TGI (RXF 393 renal) of 277 nM, a GI50 (NCI/ADR-RES ovarian) of 156 nM and a TGI (NCI/ADR-RES ovarian) of 316 nM. The GI50 (CCRF-CEM leukemia) was 127 nM, the TGI (CCRF-CEM leukemia) was 532 nM and the GI50 (MCF7 breast) was 104 nM. The TGI (MCF7 breast) was 318 nM, the GI50 (PC-3 prostate) was 160 nM and the TGI (PC-3 prostate) was 592 nM. The GI50 (UO-31 renal) was 227 nM, the TGI (UO-31 renal) was 599 nM and the GI50 (TK-10 renal) was 332 nM. For the same compound, the TGI (TK-10 renal) was 979 nM, the GI50 (NCI-H522 lung) was 152 nM and the TGI (NCI-H522 lung) was 335 nM. It also gave a GI50 (SNB-19 CNS) of 202 nM, a TGI (SNB-19 CNS) of 1010 nM and a GI50 (ACHN renal) of 183 nM. For the same compound, the TGI (ACHN renal) was 527 nM, the GI50 (NCI-H226 lung) was 247 nM and the TGI (NCI-H226 lung) was 2780 nM. It also gave a GI50 (U251 CNS) of 140 nM, a TGI (U251 CNS) of 444 nM and a GI50 (SW-620 colon) of 150 nM. For the same compound, the TGI (SW-620 colon) was 922 nM, the GI50 (SF-295 CNS) was 159 nM and the TGI (SF-295 CNS) was 542 nM. It also gave a GI50 (BT-549 breast) of 262 nM and a TGI (BT-549 breast) of 877 nM.
